Where two headings read alike, the source gives them in different places.
How the values were obtained:
[1] = test system: breast and colon cancer lines (MCF-7, T-47D, ZR-75-1, MCF-7ras, MDA-MB-231, BT-20, HBL-100, LS-174T, WiDr, HT-29); experiment: Growth inhibition of breast and colon cancer lines (FIG. 1); assay type: cell-based, human; conditions: 0.5 mM, alone
[2] = test system: cultured human fibroblasts; conditions: cited from earlier work
[3] = test system: four leukemic cell lines (HL-60, K-562, myc-K562, Molt-4); experiment: Growth inhibition of leukemic cell lines; assay type: cell-based, human
[4] = test system: breast (MCF-7) and colon (LS-174T) cancer cell lines; experiment: Growth inhibition of breast and colon cancer cells (Table 1); assay type: cell-based, human; conditions: Homo sapiens
Method: The compounds of the present invention were added using 100X concentrated stock solutions. At desired times, cell counts in duplicate were performed on a Coulter counter after harvesting the cells with gentle trypsinization. […] Cell counts were performed on each of three or more separate experiments, and the average values are expressed as percent growth inhibition as compared with untreated control cells. | ^a The values of percentage growth inhibition were determined from th | doseresponse curve experiments. Each value represents an average value an | range (in parentheses) obtained from three or more separate experiments. | The cell counts in duplicate were performed at day 3 and day 4 after two | treatments (day 0 and day 2) with analogs (seeding on day -1).

Molt-4 = experiment: Growth inhibition of leukemic cells (Table 12); assay type: cell-based, human; conditions: Homo sapiens, MOLT-4; read-out: Inhibition of Growth IC50, Molt-4
K-562 = experiment: Growth inhibition of leukemic cells (Table 12); assay type: cell-based; conditions: Homo sapiens, K562
[5] = test system: MCF-7ras breast cancer cell line; experiment: Synergistic growth inhibition by analogue combinations (Table 2); assay type: cell-based, human; conditions: footnote of Table 2
Method: All breast cancer cell lines were grown in IMEM supplemented with 10% fetal bovine serum, HEPES 20 mM, penicillin-streptomycin, and extra glutamine. Colon carcinoma cell lines were grown in EMEM supplemented with 10% FBS, EMEM, NEAA, HEPES 20 mM, extra glutamine, and penicillin-streptomycin. The cells were grown at 37° C. in humidified incubators in an atmosphere of 5% CO2.
For cell growth experiments, 2-3×10^5 cells/60 mm dish were seeded, and 24 hours later (Day 0), the medium was removed, and fresh medium and the additives were added then and every 48 hours thereafter. The compounds of the present invention were added using 100X concentrated stock solutions. At desired times, cell counts in duplicate were performed on a Coulter counter after harvesting the cells with gentle trypsinization.
Synergism quotient was defined as the net growth inhibitory effect of the analogue combination divided by the sum of the net analogue effects on growth inhibition. A quotient of >1 indicates a synergistic effect, while a quotient of <1 indicates an antagonistic effect.
Synergism of growth inhibition was determined by
treatment of cells with C-6 analogues and C-8 analogues alone
and in combination at Day 0 and Day 2 and counting the cell
^a Data are expressed as percentage growth inhibition in reference to
the growth of untreated control cells and represent average values and
ranges (in parentheses) of duplicate cell counts on three or more separat
experiments. The values for percentage growth inhibition of each analogue
^b The synergism quotient was defined as previously described.

myc-K562 = experiment: Growth inhibition of leukemic cells (Table 12); assay type: cell-based; conditions: Homo sapiens
HL-60 = experiment: Growth inhibition of leukemic cells (Table 12); assay type: cell-based; conditions: Homo sapiens
[6] = test system: breast and colon cancer cells; experiment: Effect on cell morphology (FIG. 2); assay type: cell-based, human; conditions: 100 μM; three to four days
Source text: The photographs were taken on Day 4, ×160.
Furthermore, the synergistic growth inhibitory effect of C-6 and C-8 analogue combinations was also reflected in the change in the cell morphology.

[7] = test system: breast and colon cancer lines (MCF-7, T-47D, ZR-75-1, MCF-7ras, MDA-MB-231, BT-20, HBL-100, LS-174T, WiDr, HT-29); conditions: millimolar concentrations; previously reported; cited from earlier work
[8] = test system: HL-60 human leukemia cells; experiment: Growth inhibition of HL-60 leukemia cells (Example 3, Table 16); assay type: cell-based; conditions: for IC50: Homo sapiens
Method: HL-60 leukemic cells were obtained from the American Type Culture Collection (Rockville, Md.) and were grown in suspension culture in RPMI 1640 supplemented with 10% heat-inactivated fetal bovine serum, streptomycin (500 μg/ml), penicillin (50 units/ml), and glutamine (1 mM) (Gibco, Grand Island, N.Y.).
Cell counts were performed at desired times on a Coulter Counter.
The IC50 values were determined from the dose-
represent an average value obtained for each analogue
from two or more separate experiments carried out from 3
days or 6 days. Initial cell number, 1 × 10^5 /dish.
Typical numbers of untreated control cells at day 3 and
viability in treated and control cells.

[9] = target: T1, RI, regulatory subunit of cAMP-dependent protein kinase type I (Oryctolagus cuniculus, UniProt G1TDN4); experiment: Binding affinity for RI (Table 14)
T1 construct: from tissue
T1 sequence (G1TDN4 1-381): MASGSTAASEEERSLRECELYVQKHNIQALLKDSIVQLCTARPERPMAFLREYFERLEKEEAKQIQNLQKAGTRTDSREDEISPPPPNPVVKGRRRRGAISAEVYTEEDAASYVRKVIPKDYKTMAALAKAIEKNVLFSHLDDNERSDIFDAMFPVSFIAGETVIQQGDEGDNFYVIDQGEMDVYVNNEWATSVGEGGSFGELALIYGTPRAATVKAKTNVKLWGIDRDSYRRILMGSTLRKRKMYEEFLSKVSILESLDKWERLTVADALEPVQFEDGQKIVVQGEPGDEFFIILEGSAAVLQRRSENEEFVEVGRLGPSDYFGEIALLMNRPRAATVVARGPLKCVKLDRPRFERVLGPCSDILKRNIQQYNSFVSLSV
Method: (§1) RI and RII are the regulatory subunits of cAMP-dependent protein
(§2) kinase type I and type II, respectively. Site A (Site 2) and Site B
(§3) (RI and RII): the affinities of analogues for Site A and Site B were
(§4) determined by the measurement of kinetic constants (inhibition constant,
(§5) Ki), and the values are expressed as the relative affinity Ki
(§6) (analogue), i.e., the ratio between the apparent inhibition constant for
(§7) cAMP and the analogue, as described in Ogreid et al., Eur. J. Biochem.

HL-60 leukemia cells = experiment: Surface antigen expression of HL-60 cells (Example 5); assay type: cell-based, human; conditions: 100 μM
Method: (§8) Briefly, cells were fixed in 70% ethanol and stored at 4° C. before analysis. Nuclear DNA was stained with propidium iodide, 50 μg/ml in phosphate-buffered saline (pH 7.4), for 30 minutes at room temperature. RNase was added to avoid double-helix RNA staining. The DNA content of cells was analyzed by a FACScan flow cytometer coupled with a Hewlett-Packard computer. Cell cycle data analysis was performed by a Cell-FIT program according to the method of Dean (Cell Tissue Kinet. 13: 299-308 (1980)) (Becton Dickinson Immunocytometry Systems). Pulse area versus pulse width gating was performed to exclude doublets from the G2 -M region. For each sample, 20,000 events were stored in list mode. Cell surface antigen analysis was performed by flow cytometry with FACScan using a panel of monoclonal antibodies reactive with either monocytic or myeloid cells.
The effect of Rp- and Sp-8-Cl-cAMPS on the expression of differentiation markers in HL-60 cells was examined to determine if the growth-arrested HL-60 cells are more differentiated than untreated cells. […] For each sample, 2×10^4 cells were analyzed. Cell surface antigen analysis was performed by flow cytometry with FACScan. Cell gating was performed using forward and side scatter.

[10] = target: T2, Protein kinase type II (cAKII) (Bos taurus, UniProt P00515); experiment: Protein kinase activation (Table 15); assay type: biochemical, bovine (heart)
T2 construct: prepared from rabbit skeletal muscle and bovine heart; from tissue; host or cells: bovine heart
T2 sequence (P00515 2-401 limits assumed): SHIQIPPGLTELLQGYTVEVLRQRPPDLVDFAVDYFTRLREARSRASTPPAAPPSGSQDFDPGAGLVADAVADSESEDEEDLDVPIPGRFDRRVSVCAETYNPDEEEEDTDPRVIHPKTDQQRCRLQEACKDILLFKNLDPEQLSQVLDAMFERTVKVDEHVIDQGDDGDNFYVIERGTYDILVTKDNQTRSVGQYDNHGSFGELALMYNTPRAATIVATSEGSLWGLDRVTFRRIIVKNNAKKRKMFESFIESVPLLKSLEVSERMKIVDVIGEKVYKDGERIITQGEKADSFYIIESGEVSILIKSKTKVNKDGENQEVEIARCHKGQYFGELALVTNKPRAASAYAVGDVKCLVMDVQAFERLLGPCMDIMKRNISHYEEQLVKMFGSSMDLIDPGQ
Method: (§9) ATP to Kemptide as described by Ogreid et al., Eur. J. Biochem. 150: 219-227 (1985).
(§10) Protein kinases types I (cAKI) and II (cAKII) were
(§11) prepared from rabbit skeletal muscle and bovine heart,
(§12) respectively, as described in D.o slashed.skeland et al. (J. Biol.
(§13) of the protein kinase in Ogreid et al. (Eur. J. Biochem.

[11] = test system: LS-174T human colon carcinoma cells; experiment: Growth inhibition of LS-174T cells (Example 4, Table 18); assay type: cell-based
Method: LS-174T human colon carcinoma cells were obtained from the National Cancer Institute, Division of Cancer Treatment, Bethesda, Md., and were grown in Eagle's minimum essential medium supplemented with 10% heat-inactivated fetal bovine serum, Eagle's minimum essential medium nonessential amino acids, 20 mM 4-(2-hydroxyethyl)-1-piperazineethanesulfonic acid, 2mM glutamine, and penicillin-streptomycin (Gibco). The medium was changed every 48 hours.
LS-174T cells were seeded at a density of 2×10^5 / 60 mm dish. […] At desired times, cell counts were performed in duplicate on a Coulter Counter after harvesting cells with gentle trypsinization.
The percentage growth inhibition values shown at 10
and 50 μM analogue concentrations were determined from
the dose-response curve experiments like those shown in
FIG. 1 and represent an average value obtained for each
analogue from two or more separate experiments. Sp-6-SET-

HL-60 Cells = experiment: Cell cycle kinetics of HL-60 cells (Table 17); assay type: cell-based, human; conditions: for % G2 M / % G0-G1 / % S: 96 hours; for % G2 M: control 8.3; for % G0-G1: control 45.7; for % S: control 46
Method: as §8

[12] = target: T3, Protein kinase type I (cAKI) (Oryctolagus cuniculus, UniProt G1TDN4); experiment: Protein kinase activation (Table 15); assay type: biochemical, rabbit (skeletal muscle)
T3 construct: prepared from rabbit skeletal muscle and bovine heart; from tissue; host or cells: rabbit skeletal muscle
T3 sequence (G1TDN4 1-381): as the sequence (G1TDN4 1-381) above
Method: as §9, §10, §11, §12, §13

[13] = target: T4, RII, regulatory subunit of cAMP-dependent protein kinase type II (Bos taurus, UniProt P00515); experiment: Binding affinity for RII (Table 14)
T4 construct: from tissue
T4 sequence (P00515 whole entry): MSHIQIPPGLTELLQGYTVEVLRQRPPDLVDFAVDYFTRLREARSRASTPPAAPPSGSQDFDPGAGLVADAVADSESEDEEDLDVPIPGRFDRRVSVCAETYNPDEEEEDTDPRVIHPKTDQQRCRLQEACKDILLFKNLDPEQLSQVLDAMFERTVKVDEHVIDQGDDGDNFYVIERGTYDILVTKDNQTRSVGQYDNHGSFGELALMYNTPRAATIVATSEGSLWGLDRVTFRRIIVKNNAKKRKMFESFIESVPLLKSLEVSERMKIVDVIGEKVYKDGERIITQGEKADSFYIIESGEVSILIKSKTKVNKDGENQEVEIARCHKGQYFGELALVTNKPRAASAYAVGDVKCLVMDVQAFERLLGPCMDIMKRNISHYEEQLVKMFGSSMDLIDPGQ
Method: as §1, §2, §3, §4, §5, §6, §7

[14] = test system: disseminated neuroblastomas; conditions: combined drug regimen; cited from earlier work
YAC lymphoma cell = conditions: mouse, in vivo; cited from earlier work
[15] = 72 h, 50 μM, day 3, average (range), read-out: % Growth Inhibition, Day 3
[16] = 96 h, 50 μM, day 4, average (range), read-out: % Growth Inhibition, Day 4
[17] = 50 micromolar, read-out: growth inhibition
[18] = half-maximum activation, U. M.: unmeasurable

CC(C)Cn1c(=O)n(C)c(=O)c2[nH]cnc21 [1-methyl-3-isobutylxanthine]
growth inhibitory effect [1]: little or no growth inhibitory effect
DNA synthesis ([2]; added during first eight hours after serum addition): not delayed
DNA synthesis ([2]; added more than eight hours after serum addition): inhibitory
growth inhibitory effect ([3]; 0.5 mM, alone): little or no growth inhibitory effect

CNc1nc2c(N)ncnc2n1[C@@H]1O[C@@H]2COP(=O)(O)O[C@H]2[C@H]1O [8-methylamino-cAMP]
inhibition at 50 µM [4, 15]: 14%
inhibition at 50 µM [4, 16]: 15%
inhibition at 50 µM [4, 17]: ≤ 20%
IC50 (Molt-4): 100 µM
IC50 (K-562): 100 µM
times less potent than 8-Cl-cAMP ([3]; leukemic cell lines): 5-20 times
percentage growth inhibition of each analogue when added alone [5]: 10%
IC50 (myc-K562): 100 µM
IC50 (HL-60): 100 µM

CSc1nc2c(N)ncnc2n1[C@@H]1O[C@@H]2COP(=O)(O)O[C@H]2[C@H]1O [8-methylthio-cAMP]
inhibition at 50 µM [4, 15]: 46%
inhibition at 50 µM [4, 16]: 42%
inhibition at 50 µM [4, 17]: 40 to 75%
IC50 (Molt-4): 100 µM
IC50 (K-562): 100 µM
times less potent than 8-Cl-cAMP ([3]; leukemic cell lines): 5-20 times
cell morphology [6]: induced the morphological change
IC50 (myc-K562): 100 µM
IC50 (HL-60): 100 µM

O=C(Nc1ncnc2c1ncn2[C@@H]1O[C@@H]2COP(=O)(O)O[C@H]2[C@H]1O)c1ccccc1 [N^6 -benzoyl-cAMP]
inhibition at 50 µM [4, 15]: 30%
inhibition at 50 µM [4, 16]: 28%
IC50 (Molt-4): 40 µM
IC50 (K-562): 45 µM
IC50 ([3]; Homo sapiens, leukemic cell lines, range): 40 to 50 µM
percentage growth inhibition of each analogue when added alone [5]: 10%
IC50 (myc-K562): 50 µM
IC50 (HL-60): 50 µM

CCCC(=O)Nc1ncnc2c1ncn2[C@@H]1O[C@@H]2COP(=O)(O)O[C@H]2[C@H]1O [N^6 -butyryl-cAMP]
inhibition at 50 µM [4, 15]: 0%
inhibition at 50 µM [4, 16]: 0%
growth inhibition [7]: growth inhibition only in the hormone-dependent breast cancer lines

Nc1ncnc2c1nc(Cl)n2[C@@H]1O[C@@H]2CO[P@](O)(=S)O[C@H]2[C@H]1O [Sp-8-Cl-cAMPS, Sp-(axial exocyclic sulfursubstitution) 8-chloro-adenosine 3': 5'-monophosphorothioate]
IC50 ([8]; HL-60, 72 h, read-out: Growth inhibition (IC50), Day 3): 100 µM
IC50 ([8]; HL-60, 144 h, read-out: Growth inhibition (IC50), Day 6): 8 µM
fold less potent than 8-Cl-cAMP ([8]; growth inhibition HL-60, day 6): 20 fold
relative affinity Ki (cAMP)/Ki (analogue), RI Site A ([9]; Site A (Site 2)): 0.18
relative affinity Ki (cAMP)/Ki (analogue), RI Site B ([9]; Site B (Site 1)): 0.037
decrease in affinity for Site A of RI vs corresponding cyclophosphate ([9]; vs cyclophosphate): 15 fold
decrease in affinity for Site B of RI vs corresponding cyclophosphate ([9]; vs cyclophosphate): 54 fold
surface antigen expression (HL-60 leukemia cells): no appreciable effect on the surface antigen expression
Activation Constant (Ka), cAKII [10, 18]: 2.5 × 10^-7
increase in the Ka for protein kinase type II vs 8-Cl-cAMP ([10]; vs 8-Cl-cAMP): 2.5 fold
inhibition at 10 µM ([11]; Homo sapiens, LS174T): 20%
inhibition at 50 µM ([11]; Homo sapiens, LS174T): 40%
growth inhibitory potency ([11]; LS-174T): moderate potency
% G2 M (HL-60 Cells; 10 μM): 8.9%
% G0-G1 (HL-60 Cells; 10 μM): 46.8%
% S (HL-60 Cells; 10 μM): 44.3%
% G2 M (HL-60 Cells; 50 μM): 8.6%
% G0-G1 (HL-60 Cells; 50 μM): 46%
% S (HL-60 Cells; 50 μM): 45.4%
% G2 M (HL-60 Cells; 100 μM): 9.0%
% G0-G1 (HL-60 Cells; 100 μM): 56%
% S (HL-60 Cells; 100 μM): 35%
cell cycle phase distribution (HL-60 Cells; HL-60, 96 hours in Table 17): not appreciably different
Activation Constant (Ka), cAKI [12, 18]: 2.5 × 10^-7
increase in the Ka for protein kinase type I vs 8-Cl-cAMP ([12]; vs 8-Cl-cAMP): 11 fold
relative affinity Ki (cAMP)/Ki (analogue), RII Site A ([13]; Site A (Site 2)): 0.0023
relative affinity Ki (cAMP)/Ki (analogue), RII Site B ([13]; Site B (Site 1)): 2.4
decrease in affinity for Site A of RII vs corresponding cyclophosphate ([13]; vs cyclophosphate): 22 fold
decrease in affinity for Site B of RII vs corresponding cyclophosphate ([13]; vs cyclophosphate): 1.9 fold

COc1ccc(Cc2nccc3cc(OC)c(OC)cc23)cc1OC [papaverine]
clinical result [14]: promising results

cholera toxin
inhibition of YAC lymphoma cell proliferation (YAC lymphoma cell): almost complete inhibition of YAC lymphoma cell proliferation for up to four days

From patent publication US5843916A, “Cyclic amp analogues, individually and in pairs, to inhibit neoplastic cell growth” (priority 1994, dated 1998)
